Results: US20180296531A1, “STIMULATION OF 11B-HSD2 EXPRESSION TO IMPROVE HORMONAL THERAPY OF STEROID-DEPENDENT DISEASE” (THE CLEVELAND CLINIC FOUNDATION, priority 2015, published 2018)

Key:
[1] = tested on: GR, HSD11B2, HSD11B1 transcripts; assay: qPCR of GR, HSD11B2 and HSD11B1 transcripts; format: cell-based, human
Experimental: (§1) LAPC4 cells were treated with Enz for 36 days and then seeded into 12 well plates coated with poly-DL-ornithine at 50% confluence. After incubation overnight, the cells were transfected with 11β-HSD2-FLAG plasmid for 48 hours by using the TranslT®-2020 Transfection Reagent (Mirus) according to the protocol provided by the manufacturer, then maintained in phenol-red-free medium with 5% Charcoal:Dextran-stripped FBS for 48 hours before being treated with the indicated drugs. Total RNA was extracted with a GenElute Mammalian Total RNA miniprep kit (Sigma-Aldrich) and 1 μg RNA was reverse-transcribed to cDNA with the iScript cDNA Synthesis Kit (Bio-Rad). An ABI 7500 Real-Time PCR machine (Applied Biosystems) was used to perform the qPCR analysis, using iTaq Fast SYBR Green Supermix with ROX (Bio-Rad) in 96-well plates at a final reaction volume of 10 μl. The qPCR analysis was carried out in triplicate with suitable primers. Each mRNA transcript was quantitated by normalizing the sample values to RPLP0 and to vehicle treated cells (for steroid treated cells). All gene expression studies were repeated in independent experiments.

[2] = tested on: LAPC4 and VCaP CRPC xenografts; assay: Mouse xenograft studies: tumor growth and progression-free survival; format: in vivo
Experimental: All mouse studies were performed under a protocol approved by the Institutional Animal Care and Use Committee (IACUC) of the Cleveland Clinic Lerner Research Institute. All NSG male mice (6-8 weeks old) were purchased from the Jackson Laboratory and the number of mice used in this study was based on previously published mouse xenograft studies by our lab that determined effects of steroid pathway inhibition/augmentation on xenograft growth. Mice were surgically orchiectomized and implanted with DHEA pellets to mimic human adrenal DHEA production in patients with CRPC. 1 week later, mice were prepared for cell injections.
For the evaluation of the 11β-HSD2 role in reversing enzalutamide resistance, either 10^7 vector control or 10^7 11β-HSD2 overexpressing LAPC4 or VCaP cells (100 μl in 50% matrigel and 50% growth media) were subcutaneously injected into mice. When tumors reached 100 or 150 mm^3 (length×width×height×0.52), for LAPC4 and VCaP xenografts, respectively, the mice were arbitrarily divided into 2 groups each for vector and 11β-HSD2 overexpressing cells: Enz diet 62.5 mg/kg and or chow alone groups. Tran et al., Science 324, 787-790 (2009). Based on the daily chow consumption, approximately 0.3125 mg Enz was consumed per mouse per day. Enz in chow and chow alone were obtained from Medivation. Tumor volume was measured every other day, and progression-free survival was assessed as time to 3-fold (LAPC4) or 1.5-fold (VCaP) increase in tumor volume (from 100 or 150 mm^3) from the time Enz or chow alone was initiated. The number of mice in the LAPC4 Vector/Ctrl, Vector/Enz, 11β-HSD2/Ctrl and 11β-HSD2/Enz groups were 9, 9, 10, and 11, respectively. The number of mice in the VCaP Vector/Ctrl, Vector/Enz, 11β-HSD2/Ctrl and 11β-HSD2/Enz groups were 6, 6, 5, and 8, respectively. Numbers of mice in each treatment group were determined by those that survived surgical procedures and had reached a tumor volume to initiate treatment.
For evaluation of the role of AMFR in reversing enzalutamide resistance, either 10^7 control or 10^7 AMFR knockdown LAPC4 cells (100 μl in 50% matrigel and 50% growth media) were subcutaneously injected into mice. The remaining procedures were performed as described above. The number of mice in the LAPC4 shCtrl/Enz and shAMFR/Enz groups were 6, and 10, respectively. Protein levels of 11β-HSD2 in the shCtrl and control or shAMFR LAPC4 xenografts were analyzed by immunoblot. Briefly, ˜40-50 mg xenograft tissue was minced into pieces and then added into soft tissue homogenizing CK14 tubes (Betin Technologies) with 150 μl RIPA buffer containing protease inhibitors. Xenograft tissues were homogenized with a homogenizer (Minilys, Betin Technologies) 6 times (40 seconds each time) at the highest speed. Tubes were incubated on the ice for 5-10 minutes between each homogenization to cool lysates. The lysates were then centrifuged for 30 minutes at 15,000×g and the supernatants were used for immunoblot analysis.

AR-regulated transcripts = assay: qPCR of AR-regulated transcripts; format: cell-based, human; conditions: LAPC4, 24 hours
Experimental: as §1

11β-HSD1 protein = assay: Immunoblot of 11β-HSD1 protein in prostate cancer cell lines; format: cell-based, human; conditions: AR-expressing prostate cancer cell lines
Experimental: (§2) For protein analysis, immunoblots were performed as described previously. Li et al., J Clin Endocrinol Metab 98, E1189-1197 (2013). Briefly, total cellular protein was extracted with ice cold RIPA lysis buffer (Sigma-Aldrich) containing protease inhibitors (Roche). 30-50 μg protein was separated by 8% SDS-PAGE gel and then transferred to a nitrocellulose membrane (Millipore). After incubating with the anti-11β-HSD2 antibody (Santa Cruz; 1:3000), anti-11β-HSD1 antibody (Santa Cruz; 1:1000), GR antibody (BD Biosciences; 1:1000), anti-Erlin-2 antibody (Cell Signaling Technology: 1:1000) or anti-AMFR antibody (Proteintech; 1:1000) overnight at 4° C., the appropriate secondary antibody was incubated for 1 hour at room temperature. The chemiluminescent detection system (Thermo Scientific) was used to detect the bands with peroxidase activity. An anti-β-actin antibody (Sigma-Aldrich; 1:5000) was used as a control for sample loading.

Erlin-2 = assay: Immunoblot of Erlin-2 in LAPC4 cells and human prostate tissues; format: cell-based
Experimental: as §2
Seven fresh prostate tissue cores (60-80 mg) from Patients #5-#11 were obtained from the peripheral zone of radical prostatectomy specimens at Cleveland Clinic, confirmed to have tumor in or in close proximity to cores by an expert prostate cancer pathologist, minced and aliquoted to two parts. One was treated with 10 nM DHEA plus vehicle, and the other was treated with 10 nM DHEA plus 10 μM Enz. […]

[3] = tested on: LAPC4 human prostate cancer cell line; assay: Cell line cortisol metabolism: conversion of [3H]-cortisol to cortisone, HPLC
[4] = long-term Enz treatment, LAPC4 and VCaP
[5] = LAPC4 xenografts with forced 11β-HSD2 expression, enzalutamide in chow
[6] = enzalutamide-treated LAPC4 xenografts with stable AMFR knockdown

For `CNC(=O)c1ccc(N2C(=S)N(c3ccc(C#N)c(C(F)(F)F)c3)C(=O)C2(C)C)cc1F` [enzalutamide], the “expression of GR, HSD11B2 or HSD11B1 transcripts” value ([1]; LAPC4, 24 hours (acute)) was “no acute effect on expression of GR, HSD11B2 or HSD11B1”, the GR transcript [1, 4] was “GR transcript increases” and the “HSD11B2 mRNA” value [1, 4] was “No suppression of HSD11B2 mRNA”. The xenograft tumor growth ([2]; LAPC4 Vector xenografts, orchiectomized mice with DHEA, enzalutamide in chow) was “growth of Vector xenografts through enzalutamide therapy”, the progression-free survival [2, 5] was “prolonged progression-free survival” and the xenograft tumor growth [2, 5] was “significantly reversed enzalutamide-resistant growth”. The “sensitivity of xenograft to treatment” value ([2]; VCaP xenografts with 11β-HSD2 expression) was “Reinstatement of sensitivity to enzalutamide treatment”, the progression-free survival [2, 6] was “prolonged progression-free survival” and the xenograft tumor growth [2, 6] was “suppressed xenograft growth”. The “expression of AR-regulated genes” value (AR-regulated transcripts) was “suppression of AR-regulated genes”, the 11β-HSD1 protein (11β-HSD1 protein) was “no consistent effect on 11β-HSD1 was detectable” and the Erlin-2 expression (Erlin-2; LAPC4 cells) was “consistently up-regulated”. For the same molecule, the “patient tissues with Erlin-2 up-regulation” value (Erlin-2; human prostate tissues treated with enzalutamide) was 8 of 11, the “cortisol levels / conversion of [3H]-cortisol to cortisone” value ([3]; long enzalutamide exposure (36 days), LAPC4, cells and media) was “sustains cortisol levels by retarding conversion to cortisone in cells and media” and the cortisol metabolism ([3]; short term Enz treatment (24 hours), LAPC4) was “does not affect cortisol metabolism”.
